The source of these data is PubChem BioAssay AID180 (DTP/NCI, 2004).

Values joined by “and” are separate entries in the source; they are usually repeats but may differ in a detail not shown here. Equal entries are not always repeated.

This assay relates to BDF1 mice, Adenocarcinoma 755 s.c., tumor weight T/C. The experiment in a line: NCI In Vivo Anticancer Drug Screen. Data for tumor model Adenocarcinoma 755 (subcutaneous) in B6D2F1 (BDF1) mice. The note with it: endpoint: mean tumor weight, higher = larger tumour. The method, boiled down: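 Compound activity was tested in mice carrying transplanted tumors. Survival or tumor size was measured, and each value is the treated-group measurement divided by that of the vehicle-treated control group (T/C).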

Setting [1] is: dose: 125.0 mg/kg/injection, schedule: Q01DX011 (ip), vehicle: methylcellulose (MC).

Usually T/C stands for the result in the treated group divided by that in the control group, in per cent. As to `CN(C)c1nc(N(C)C)nc(N(C)C)n1`, the T/C is 121 % of control (dose: 4.75 mg/kg/injection, schedule: Q01DX011 (ip), vehicle: other); 67 % of control (dose: 9.5 mg/kg/injection, schedule: Q01DX011 (ip), vehicle: other); 95 % of control (dose: 10.88 mg/kg/injection, schedule: Q01DX011 (ip), vehicle: other); 95 % of control (dose: 10.9 mg/kg/injection, schedule: Q01DX011 (ip), vehicle: other); 108 % of control (dose: 11.25 mg/kg/injection, schedule: Q01DX011 (iv), vehicle: other); 87 % of control (dose: 13.85 mg/kg/injection, schedule: Q01DX011 (ip), vehicle: carboxymethylcellulose (CMC)). Further, the T/C by setting is: (dose: 13.85 mg/kg/injection, schedule: Q01DX011 (ip), vehicle: other) 104 % of control; (dose: 14.13 mg/kg/injection, schedule: Q01DX011 (ip), vehicle: other) 117 % of control; (dose: 15.6 mg/kg/injection, schedule: Q01DX011 (oral), vehicle: other) 77 % of control; (dose: 15.6 mg/kg/injection, schedule: Q01DX011 (oral), vehicle: saline) 88 % of control; (dose: 19.0 mg/kg/injection, schedule: Q01DX011 (ip), vehicle: other) 53 % of control; (dose: 21.75 mg/kg/injection, schedule: Q01DX011 (ip), vehicle: other) 55 % of control and 73 % of control. In addition, the T/C (dose: 22.5 mg/kg/injection, schedule: Q01DX011 (iv), vehicle: other) is 67 % of control; the T/C (dose: 25.0 mg/kg/injection, schedule: Q01DX011 (ip), vehicle: other) is 59 % of control; the T/C (dose: 27.7 mg/kg/injection, schedule: Q01DX011 (ip), vehicle: carboxymethylcellulose (CMC)) is 161 % of control; the T/C (dose: 27.7 mg/kg/injection, schedule: Q01DX011 (ip), vehicle: other) is 56 % of control; the T/C (dose: 30.37 mg/kg/injection, schedule: Q01DX011 (ip), vehicle: carboxymethylcellulose (CMC)) was 53 % of control; the T/C (dose: 31.25 mg/kg/injection, schedule: Q01DX011 (ip), vehicle: carboxymethylcellulose (CMC)) was 118 % of control. In addition, the T/C (dose: 31.25 mg/kg/injection, schedule: Q01DX011 (ip), vehicle: methylcellulose (MC)) was 91 % of control; the T/C (dose: 31.25 mg/kg/injection, schedule: Q01DX011 (iv), vehicle: other) is 80 % of control and 85 % of control; the T/C (dose: 31.3 mg/kg/injection, schedule: Q01DX011 (oral), vehicle: other) was 101 % of control; the T/C (dose: 31.3 mg/kg/injection, schedule: Q01DX011 (oral), vehicle: saline) is 75 % of control; the T/C (dose: 34.8 mg/kg/injection, schedule: Q01DX011 (ip), vehicle: carboxymethylcellulose (CMC)) was 50 % of control; the T/C (dose: 43.5 mg/kg/injection, schedule: Q01DX011 (ip), vehicle: carboxymethylcellulose (CMC)) was 47 % of control. Moreover, the T/C is 109 % of control (dose: 43.5 mg/kg/injection, schedule: Q01DX011 (ip), vehicle: other); 89 % of control (dose: 45.0 mg/kg/injection, schedule: Q01DX011 (iv), vehicle: other); 96 % of control (dose: 55.4 mg/kg/injection, schedule: Q01DX011 (ip), vehicle: carboxymethylcellulose (CMC)); 45 % of control (dose: 55.4 mg/kg/injection, schedule: Q01DX011 (ip), vehicle: other); 54 % of control (dose: 56.5 mg/kg/injection, schedule: Q01DX011 (ip), vehicle: other); 29 % of control (dose: 58.0 mg/kg/injection, schedule: Q01DX011 (ip), vehicle: carboxymethylcellulose (CMC)). The T/C by setting is: (dose: 60.75 mg/kg/injection, schedule: Q01DX011 (ip), vehicle: carboxymethylcellulose (CMC)) 78 % of control; (dose: 62.5 mg/kg/injection, schedule: Q01DX011 (ip), vehicle: carboxymethylcellulose (CMC)) 88 % of control; (dose: 62.5 mg/kg/injection, schedule: Q01DX011 (ip), vehicle: methylcellulose (MC)) 82 % of control; (dose: 62.5 mg/kg/injection, schedule: Q01DX011 (iv), vehicle: other) 51 % of control and 57 % of control; (dose: 62.5 mg/kg/injection, schedule: Q01DX011 (oral), vehicle: other) 74 % of control; (dose: 62.5 mg/kg/injection, schedule: Q01DX011 (oral), vehicle: saline) 105 % of control. Further, the T/C is, setting by setting: (dose: 87.0 mg/kg/injection, schedule: Q01DX011 (ip), vehicle: carboxymethylcellulose (CMC)) 11 % of control; (dose: 87.0 mg/kg/injection, schedule: Q01DX011 (ip), vehicle: other) 14 % of control; (dose: 121.5 mg/kg/injection, schedule: Q01DX011 (ip), vehicle: carboxymethylcellulose (CMC)) 48 % of control; (dose: 125.0 mg/kg/injection, schedule: Q01DX011 (ip), vehicle: carboxymethylcellulose (CMC)) 43 % of control; under setting [1], 34 % of control; (dose: 125.0 mg/kg/injection, schedule: Q01DX011 (iv), vehicle: other) 8 % of control. In addition, the T/C was 54 % of control (dose: 125.0 mg/kg/injection, schedule: Q01DX011 (oral), vehicle: other); 106 % of control (dose: 125.0 mg/kg/injection, schedule: Q01DX011 (oral), vehicle: saline); 36 % of control (dose: 250.0 mg/kg/injection, schedule: Q01DX011 (ip), vehicle: carboxymethylcellulose (CMC)); 40 % of control (dose: 250.0 mg/kg/injection, schedule: Q01DX011 (oral), vehicle: saline).
Take `O=CC1CO1` (centres undefined): the T/C is, setting by setting: (dose: 29.0 mg/kg/injection, schedule: Q01DX011 (ip), vehicle: saline) 71 % of control; (dose: 44.0 mg/kg/injection, schedule: Q01DX011 (ip), vehicle: saline) 41 % of control; (dose: 66.0 mg/kg/injection, schedule: Q01DX011 (ip), vehicle: saline) 66 % of control.
With `Cc1ccc(Nc2nc(N)nc(C)c2Br)cc1`, the T/C by setting is: (dose: 15.0 mg/kg/injection, schedule: Q01DX011 (ip), vehicle: methylcellulose (MC)) 98 % of control; (dose: 31.0 mg/kg/injection, schedule: Q01DX011 (ip), vehicle: methylcellulose (MC)) 95 % of control; (dose: 62.0 mg/kg/injection, schedule: Q01DX011 (ip), vehicle: methylcellulose (MC)) 82 % of control; under setting [1], 70 % of control; (dose: 250.0 mg/kg/injection, schedule: Q01DX011 (ip), vehicle: methylcellulose (MC)) 83 % of control.
For `c1nc([N+]23CCC(CC2)CC3)c2[nH]cnc2n1`, the T/C (dose: 12.5 mg/kg/injection, schedule: Q01DX011 (ip), vehicle: saline) is 101 % of control; the T/C (dose: 20.0 mg/kg/injection, schedule: Q01DX011 (ip), vehicle: saline) is 98 % of control; the T/C (dose: 25.0 mg/kg/injection, schedule: Q01DX011 (ip), vehicle: saline) was 56 % of control; the T/C (dose: 30.0 mg/kg/injection, schedule: Q01DX011 (ip), vehicle: saline) was 50 % of control; the T/C (dose: 40.0 mg/kg/injection, schedule: Q01DX011 (ip), vehicle: saline) was 41 % of control; the T/C (dose: 50.0 mg/kg/injection, schedule: Q01DX011 (ip), vehicle: saline) was 19 % of control and 29 % of control.
For the compound `CN1c2ccc3ccccc3c2Sc2ccc3ccccc3c21`, the T/C was 53 % of control (dose: 8.25 mg/kg/injection, schedule: Q01DX011 (ip), vehicle: carboxymethylcellulose (CMC)); 71 % of control (dose: 16.5 mg/kg/injection, schedule: Q01DX011 (ip), vehicle: carboxymethylcellulose (CMC)); 59 % of control (dose: 25.0 mg/kg/injection, schedule: Q01DX011 (ip), vehicle: carboxymethylcellulose (CMC)); 66 % of control (dose: 29.0 mg/kg/injection, schedule: Q01DX011 (ip), vehicle: carboxymethylcellulose (CMC)); 46 % of control (dose: 33.0 mg/kg/injection, schedule: Q01DX011 (ip), vehicle: carboxymethylcellulose (CMC)); 80 % of control (dose: 44.0 mg/kg/injection, schedule: Q01DX011 (ip), vehicle: carboxymethylcellulose (CMC)). For the same compound, the T/C is 69 % of control (dose: 50.0 mg/kg/injection, schedule: Q01DX011 (ip), vehicle: carboxymethylcellulose (CMC)); 29 % of control and 39 % of control and 40 % of control (dose: 66.0 mg/kg/injection, schedule: Q01DX011 (ip), vehicle: carboxymethylcellulose (CMC)); 27 % of control (dose: 150.0 mg/kg/injection, schedule: Q01DX011 (ip), vehicle: carboxymethylcellulose (CMC)); 48 % of control (dose: 200.0 mg/kg/injection, schedule: Q01DX011 (ip), vehicle: carboxymethylcellulose (CMC)); 55 % of control (dose: 387.5 mg/kg/injection, schedule: Q01DX011 (ip), vehicle: carboxymethylcellulose (CMC)).
Take `Cc1ccc(C(=O)[O][Hg][CH2]C2COC([CH2][Hg][O]C(=O)c3ccc(C)cc3)CO2)cc1` (centres undefined): the T/C runs as follows: (dose: 6.25 mg/kg/injection, schedule: Q01DX011 (ip), vehicle: methylcellulose (MC)) 101 % of control; (dose: 25.0 mg/kg/injection, schedule: Q01DX011 (ip), vehicle: methylcellulose (MC)) 61 % of control; (dose: 50.0 mg/kg/injection, schedule: Q01DX011 (ip), vehicle: methylcellulose (MC)) 38 % of control.
